Patent US20250154134A1, “COMPOUND AS FAK INHIBITOR AND USE THEREOF” (WIGEN BIOMEDICINE TECHNOLOGY (SHANGHAI) CO., LTD., priority 2022, published 2025)

Columns and labels:
[1] = target: FAK recombinant protein (Homo sapiens (Human), UniProt Q05397); assay: Inhibitory activity against FAK enzyme (HTRF, TK substrate); type: biochemical
Protocol: A compound serially diluted with DMSO was mixed with a FAK recombinant protein. After the mixture was left to stand at room temperature for 10 min, a biotin-labeled TK substrate (TK) and ATP were added. […] The inhibition percentage and IC50 of the compound were calculated compared to the DMSO control group.

[2] = test system: PC3 cells; assay: PC3 cell proliferation, 3D activity assay (3D culture, 14 days); type: cell-based, human; conditions: read-out: 3D inhibitory activity against PC3 cells IC50
Protocol: (§1) 2D activity assay: 1200 PC3 cells were seeded in a 96-well plate. After overnight adherence culture, A compound serially diluted was added. […] The growth of the cells was evaluated, and the IC50 of the compound inhibiting cell growth was calculated. 3D activity assay: PC3 cells were seeded in a 96-well plate at 1200 cells/well, and 3D culture was performed. 14 days after a compound serially diluted was added, the growth of the cells was measured. The inhibition percentage and IC50 of the compound were calculated compared to the DMSO control group.

[3] = test system: PC3 cells; assay: PC3 cell proliferation, 2D activity assay (Cell Titer-Lumi, 72 h); type: cell-based, human
Protocol: as §1

[4] = Homo sapiens, PC-3, read-out: 2D inhibitory activity against PC3 cells IC50
[5] = read-out: 2D inhibitory activity against PC3 cells IC50

Sequence of FAK recombinant protein (Q05397 whole entry): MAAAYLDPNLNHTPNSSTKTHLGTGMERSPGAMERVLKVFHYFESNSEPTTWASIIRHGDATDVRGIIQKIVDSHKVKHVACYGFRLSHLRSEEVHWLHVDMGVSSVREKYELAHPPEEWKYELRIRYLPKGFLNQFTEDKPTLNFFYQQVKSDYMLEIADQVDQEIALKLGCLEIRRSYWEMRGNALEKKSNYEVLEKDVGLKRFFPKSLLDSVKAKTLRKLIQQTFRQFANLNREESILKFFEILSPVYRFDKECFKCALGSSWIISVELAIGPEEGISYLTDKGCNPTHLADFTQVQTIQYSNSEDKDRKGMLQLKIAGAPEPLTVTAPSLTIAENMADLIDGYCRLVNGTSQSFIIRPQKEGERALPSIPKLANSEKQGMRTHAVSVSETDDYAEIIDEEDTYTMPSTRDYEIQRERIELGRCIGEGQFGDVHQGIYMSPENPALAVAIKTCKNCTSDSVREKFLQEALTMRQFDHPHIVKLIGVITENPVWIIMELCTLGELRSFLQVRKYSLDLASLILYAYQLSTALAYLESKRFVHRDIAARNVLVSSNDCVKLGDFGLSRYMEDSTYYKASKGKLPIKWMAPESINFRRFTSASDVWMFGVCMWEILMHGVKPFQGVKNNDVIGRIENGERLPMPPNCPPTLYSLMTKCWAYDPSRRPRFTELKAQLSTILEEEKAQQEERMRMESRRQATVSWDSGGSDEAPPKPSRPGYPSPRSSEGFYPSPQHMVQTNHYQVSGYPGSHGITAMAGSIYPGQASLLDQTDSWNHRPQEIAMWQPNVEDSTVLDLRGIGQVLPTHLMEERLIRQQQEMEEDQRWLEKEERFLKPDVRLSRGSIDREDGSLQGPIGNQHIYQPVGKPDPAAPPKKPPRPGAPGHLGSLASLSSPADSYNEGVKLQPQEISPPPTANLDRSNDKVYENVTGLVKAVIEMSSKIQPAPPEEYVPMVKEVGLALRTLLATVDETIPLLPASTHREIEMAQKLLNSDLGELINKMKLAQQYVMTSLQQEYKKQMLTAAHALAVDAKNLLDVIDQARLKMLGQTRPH

Compound	IC50 [1]	IC50 ([2]; Homo sapiens, PC-3, 336 h)	IC50 [3, 4]	IC50 [2]	IC50 [3, 5]
CNC(=O)c1ccc(Nc2ncc(C(F)(F)F)c(Oc3cccc4c3C(=O)N(C)C43CC3)n2)c(OC)c1 [Compound 2]	< 20 nM	5 to 50 nM	> 2000 nM		
COc1cc(C(=O)NC2CCN(C)CC2)c(Cl)cc1Nc1ncc(C(F)(F)F)c(Oc2cccc3c2C(=O)N(C)C32CC2)n1 [Compound 5]	< 20 nM	< 5 nM	> 2000 nM		
COc1cc(C(=O)NC2(C)CCN(C)CC2)c(F)cc1Nc1ncc(C(F)(F)F)c(Oc2cccc3c2C(=O)N(C)C32CC2)n1 [Compound 7]	< 20 nM	< 5 nM	> 2000 nM		
COc1cc(C(=O)NC2CC3(CCN(C)CC3)C2)ccc1Nc1ncc(C(F)(F)F)c(Oc2cccc3c2C(=O)N(C)C32CC2)n1 [Compound 9]	< 20 nM	< 5 nM	> 2000 nM		
COc1cc(C(=O)NC2CCC3(CC2)CN(C)C3)c(F)cc1Nc1ncc(C(F)(F)F)c(Oc2cccc3c2C(=O)N(C)C32CC2)n1 [Compound 10]	< 20 nM	5 to 50 nM	> 2000 nM		
COc1cc(C(=O)NC2CCC3(CC2)CN(C)C3)ccc1Nc1ncc(C(F)(F)F)c(Oc2cccc3c2C(=O)N(C)C32CC2)n1 [Compound 11]	< 20 nM	5 to 50 nM	> 2000 nM		
COc1cc(C(=O)NC2CCC23CCN(C)CC3)c(F)cc1Nc1ncc(C(F)(F)F)c(Oc2cccc3c2C(=O)N(C)C32CC2)n1 (stereo not shown) [Compound 12]	< 20 nM	< 5 nM	> 2000 nM		
COc1cc(C(=O)NC2CCC23CCN(C)CC3)ccc1Nc1ncc(C(F)(F)F)c(Oc2cccc3c2C(=O)N(C)C32CC2)n1 (stereo not shown) [Compound 13]	< 20 nM	< 5 nM	> 2000 nM		
COc1cc(C(=O)NC2CCC3(CC2)CCN3C)c(F)cc1Nc1ncc(C(F)(F)F)c(Oc2cccc3c2C(=O)N(C)C32CC2)n1 (stereo not shown) [Compound 14]	< 20 nM	< 5 nM	> 2000 nM		
COc1cc(C(=O)NC2CCC3(CC2)CCN3C)ccc1Nc1ncc(C(F)(F)F)c(Oc2cccc3c2C(=O)N(C)C32CC2)n1 (stereo not shown) [Compound 15]	< 20 nM	< 5 nM	> 2000 nM		
COc1cc(C(=O)NC2COC3(CCN(C)CC3)C2)c(F)cc1Nc1ncc(C(F)(F)F)c(Oc2cccc3c2C(=O)N(C)C32CC2)n1 (stereo not shown) [Compound 16]	< 20 nM	< 5 nM	> 2000 nM		
COc1cc(C(=O)NC2COC3(CCN(C)CC3)C2)ccc1Nc1ncc(C(F)(F)F)c(Oc2cccc3c2C(=O)N(C)C32CC2)n1 (stereo not shown) [Compound 17]	< 20 nM	< 5 nM	> 2000 nM		
COc1cc(C(=O)NC2CCC3(CCN(C)CC3)C2)c(F)cc1Nc1ncc(C(F)(F)F)c(Oc2cccc3c2C(=O)N(C)C32CC2)n1 (stereo not shown) [Compound 18]	< 20 nM	5 to 50 nM	> 2000 nM		
COc1cc(C(=O)NC2CCC3(CCN(C)CC3)C2)ccc1Nc1ncc(C(F)(F)F)c(Oc2cccc3c2C(=O)N(C)C32CC2)n1 (stereo not shown) [Compound 19]	< 20 nM	5 to 50 nM	> 2000 nM		
COc1cc(C(=O)NC2CCC3(CC2)CCN(C)C3)c(F)cc1Nc1ncc(C(F)(F)F)c(Oc2cccc3c2C(=O)N(C)C32CC2)n1 (stereo not shown) [Compound 20]	< 20 nM	< 5 nM	> 2000 nM		
COc1cc(C(=O)NC2CCC3(CC2)CCN(C)C3)ccc1Nc1ncc(C(F)(F)F)c(Oc2cccc3c2C(=O)N(C)C32CC2)n1 (stereo not shown) [Compound 21]	< 20 nM	< 5 nM	> 2000 nM		
COc1cc(C(=O)NC2CCC3(CC2)CCN(C)CC3)c(F)cc1Nc1ncc(C(F)(F)F)c(Oc2cccc3c2C(=O)N(C)C32CC2)n1 [Compound 22]	< 20 nM	5 to 50 nM	> 2000 nM		
COc1cc(C(=O)NC2CCC3(CC2)CCN(C)CC3)ccc1Nc1ncc(C(F)(F)F)c(Oc2cccc3c2C(=O)N(C)C32CC2)n1 [Compound 23]	< 20 nM	5 to 50 nM	> 2000 nM		
COc1cc(C(=O)NC2CCC3(CCN(C)C3)C2)c(F)cc1Nc1ncc(C(F)(F)F)c(Oc2cccc3c2C(=O)N(C)C32CC2)n1 (stereo not shown) [Compound 24]	< 20 nM	5 to 50 nM	> 2000 nM		
COc1cc(C(=O)NC2CCC3(CCN(C)C3)C2)ccc1Nc1ncc(C(F)(F)F)c(Oc2cccc3c2C(=O)N(C)C32CC2)n1 (stereo not shown) [Compound 25]	< 20 nM	< 5 nM	> 2000 nM		
COc1cc(C(=O)NC2COC3(CCN(C)C3)C2)c(F)cc1Nc1ncc(C(F)(F)F)c(Oc2cccc3c2C(=O)N(C)C32CC2)n1 (stereo not shown) [Compound 26]	< 20 nM	< 5 nM	> 2000 nM		

Compound	IC50 [1]	IC50 ([2]; Homo sapiens, PC-3, 336 h)	IC50 [3, 4]	IC50 [2]	IC50 [3, 5]
COc1cc(C(=O)NC2CCN3CCN(C)C3C2)ccc1Nc1ncc(C(F)(F)F)c(Oc2cccc3c2C(=O)N(C)C32CC2)n1 (stereo not shown) [Compound 28]	< 20 nM	5 to 50 nM	> 2000 nM		
COc1cc(C(=O)NC2CCN3CCOC3C2)ccc1Nc1ncc(C(F)(F)F)c(Oc2cccc3c2C(=O)N(C)C32CC2)n1 (stereo not shown) [Compound 29]	< 20 nM	< 5 nM	> 2000 nM		
COc1cc(C(=O)NC2CCN3CCN=C3C2)ccc1Nc1ncc(C(F)(F)F)c(Oc2cccc3c2C(=O)N(C)C32CC2)n1 (stereo not shown) [Compound 30]	< 20 nM	5 to 50 nM	> 2000 nM		
COc1cc(C(=O)NC2CCn3ccnc3C2)ccc1Nc1ncc(C(F)(F)F)c(Oc2cccc3c2C(=O)N(C)C32CC2)n1 (stereo not shown) [Compound 31]	< 20 nM	5 to 50 nM	> 2000 nM		
COc1cc(C(=O)NC2CCn3cnnc3C2)ccc1Nc1ncc(C(F)(F)F)c(Oc2cccc3c2C(=O)N(C)C32CC2)n1 (stereo not shown) [Compound 32]	< 20 nM	5 to 50 nM	> 2000 nM		
COc1cc(C(=O)NC2CCN(C)CC2F)ccc1Nc1ncc(C(F)(F)F)c(Oc2cccc3c2C(=O)N(C)C32CC2)n1 (stereo not shown) [Compound 33]	< 20 nM	< 5 nM	> 2000 nM		
COc1cc(C(=O)NC2CCN(C)CC2OC)ccc1Nc1ncc(C(F)(F)F)c(Oc2cccc3c2C(=O)N(C)C32CC2)n1 (stereo not shown) [Compound 34]	< 20 nM	< 5 nM	> 2000 nM		
COc1cc(C(=O)NC2CCNCC2)ccc1Nc1ncc(C(F)(F)F)c(Oc2cccc3c2C(=O)N(C)C32CC2)n1 [Compound 35, 3-Methoxy-4-((4-((2′-methyl-3′-oxospiro[cyclopropane-1,1′-isoindolin]-4′-yl)oxy)-5-(trifluoromethyl)pyrimidin-2-yl)amino)-N-(piperidin-4-yl)benzamide]		< 5 nM	> 2000 nM		
CCN1CCC(NC(=O)c2ccc(Nc3ncc(C(F)(F)F)c(Oc4cccc5c4C(=O)N(C)C54CC4)n3)c(OC)c2)CC1 [Compound 37]	< 20 nM	< 5 nM	> 2000 nM		
COc1cc(C(=O)NC2CCN(CS(C)(=O)=O)CC2)ccc1Nc1ncc(C(F)(F)F)c(Oc2cccc3c2C(=O)N(C)C32CC2)n1 [Compound 38]	< 20 nM	5 to 50 nM	> 2000 nM		
COc1cc(C(=O)NC2CCN(CC(N)=O)CC2)ccc1Nc1ncc(C(F)(F)F)c(Oc2cccc3c2C(=O)N(C)C32CC2)n1 [Compound 39]	< 20 nM	< 5 nM	> 2000 nM		
[2H]C([2H])([2H])N1CCC(NC(=O)c2cc(OC)c(Nc3ncc(C(F)(F)F)c(Oc4cccc5c4C(=O)N(C)C54CC4)n3)cc2F)CC1 [Compound 40]	< 20 nM	< 5 nM	> 2000 nM		
CCN1CCC(NC(=O)c2cc(OC)c(Nc3ncc(C(F)(F)F)c(Oc4cccc5c4C(=O)N(C)C54CC4)n3)cc2F)CC1 [Compound 41]	< 20 nM	< 5 nM	> 2000 nM		
[2H]C([2H])([2H])N1CCC(C)(NC(=O)c2ccc(Nc3ncc(C(F)(F)F)c(Oc4cccc5c4C(=O)N(C)C54CC4)n3)c(OC)c2)CC1 [Compound 42]	< 20 nM	< 5 nM	> 2000 nM		
[2H]C([2H])([2H])N1CCC(C)(NC(=O)c2cc(OC)c(Nc3ncc(C(F)(F)F)c(Oc4cccc5c4C(=O)N(C)C54CC4)n3)cc2F)CC1 [Compound 43]	< 20 nM	< 5 nM	> 2000 nM		
COc1cc(C(=O)NC2CC3(CCNCC3)C2)ccc1Nc1ncc(C(F)(F)F)c(Oc2cccc3c2C(=O)N(C)C32CC2)n1 [Compound 44]	< 20 nM	5 to 50 nM	> 2000 nM		
[2H]C([2H])([2H])N1CCC2(CC1)CC(NC(=O)c1ccc(Nc3ncc(C(F)(F)F)c(Oc4cccc5c4C(=O)N(C)C54CC4)n3)c(OC)c1)C2 [Compound 45]	< 20 nM	< 5 nM	> 2000 nM		
COc1cc(C(=O)N2CCC3(CCN(C)C3)C2)ccc1Nc1ncc(C(F)(F)F)c(Oc2cccc3c2C(=O)N(C)C32CC2)n1 (stereo not shown) [Compound 58]				5 to 50 nM	> 2000 nM
COc1cc(C(=O)NC2(C)CCN(C)CC2)ccc1Nc1ncc(Cl)c(Oc2cccc3c2C(=O)N(C)C32CC2)n1 [Compound 118]		5 to 50 nM	> 2000 nM		
COc1cc(N2CC3CCN(C)C3C2)ccc1Nc1ncc(Cl)c(Oc2cccc3c2C(=O)N(C)C32CC2)n1 (stereo not shown) [Compound 171]				5 to 50 nM	> 2000 nM
COc1cc(C(=O)NC2CCN(C)CC2)c(F)cc1Nc1ncc(Cl)c(Oc2cccc3c2C(=O)N(C)C32CCCC2)n1 [Compound 209]		> 50 nM	> 2000 nM		
